In assay [1] the test system is black bean aphids (Aphis fabae). In words: Method B: root-systemic action against black bean aphids on field bean, preparation pipetted into the water. It counts as in vivo. The note with it: 10 ppm (content of active compound), 4 ml solution pipetted into bottle with Vicia faba roots, after 3 and 6 days of storage, read-out: mortality among the aphids, by root-systemic action. As for the experimental part: Germinated field bean seeds (Vicia faba) with seed roots were transferred into brown glass bottles filled with tap water. Four milliliters of an aqueous solution of the formulated preparation to be examined were pipetted into the brown glass bottle. The field bean was then heavily populated with about 100 black bean aphids (Aphis fabae). Plants and aphids were then stored in a climatized chamber (16 hours of light/day, 25° C., 40-60% relative atmospheric humidity). After 3 and 6 days of storage, the root-systemic effect of the preparation on the aphids was determined.

The test system is the same in assay [2]. Briefly: Method A: field bean plants and black bean aphids dipped into aqueous solution of the formulated preparation. It counts as in vivo. The note with it: 100 ppm (content of active compound), plants (Vicia faba) and aphids dipped 5 seconds, after 3 and 6 days of storage, read-out: mortality among the aphids. The protocol: Germinated field bean seeds (Vicia faba) with seed roots were transferred into brown glass bottles filled with tap water and then populated with about 100 black bean aphids (Aphis fabae). Plants and aphids were then dipped into an aqueous solution of the formulated preparation to be examined for 5 seconds. After they had drained, plants and animals were stored in a climatized chamber (16 hours of light/day, 25° C., 40-60% relative atmospheric humidity). After 3 and 6 days of storage, the effect of the preparation on the aphids was determined.

Some results are limits rather than exact numbers.

For the compound `CON(C)C(=O)NC(=O)c1cnccc1C(F)(F)F` [Compound A-313, 1-methyl-1-methoxy-3-(4-trifluoromethyl-3-pyridylcarbonyl)urea], the mortality at 10 ppm in assay [1] is at least 80%.

Take `CC(C)N(O)C(=O)NC(=O)c1cnccc1C(F)(F)F` [Compound A-540, 1-hydroxyl-1-isopropyl-3-(4-trifluoromethyl-3-pyridylcarbonyl)urea]: the mortality at 100 ppm in assay [2] is at least 50%. Further, in assay [1], the mortality at 10 ppm is at least 80%.

For `O=C(NC(=O)N(CCO)Cc1ccccc1)c1cnccc1C(F)(F)F` [Compound A-862, 1-benzyl-1-(2-hydroxyethyl)-3-(4-trifluoromethyl-3-pyridylcarbonyl)urea], the mortality at 100 ppm in assay [2] is at least 50%. Besides, the mortality at 10 ppm in assay [1] is at least 80%.

`CN(C(=S)NC(=O)c1cnccc1C(F)(F)F)c1ccccc1` [Compound B-349, 1-methyl-1-phenyl-3-(4-trifluoromethyl-3-pyridylcarbonyl)thiourea]: the mortality at 100 ppm in assay [2] is at least 50%. Besides, in assay [1], the mortality at 10 ppm is at least 80%.

On to `C=CCN(C(=O)c1cnccc1C(F)(F)F)C(=O)N(C)OC` [Compound E-85, 1-methyl-1-methoxy-3-allyl-3-(4-trifluoromethyl-3-pyridylcarbonyl)urea], for which the mortality at 100 ppm in assay [2] is at least 50%. Further, the mortality at 10 ppm in assay [1] was at least 80%.

With `CC(C)N1OCCN(C(=O)c2cnccc2C(F)(F)F)C1=O` [Compound U-3, 2-isopropyl-4-(4-trifluoromethyl-3-pyridylcarbonyl)-perhydro-1,2,4-oxadiazin-3-one], the mortality at 100 ppm in assay [2] is at least 50%. Moreover, in assay [1], the mortality at 10 ppm was at least 80%.

On to `O=C(NC(=S)OCC(F)(F)F)c1cnccc1C(F)(F)F` [Compound X-45, 2,2,2-trifluoroethyl N-(4-trifluoromethyl-3-pyridylcarbonyl)thiocarbamate], for which the mortality at 100 ppm in assay [2] is at least 50%. Moreover, the mortality at 10 ppm in assay [1] is at least 80%.

The term mortality denotes the percentage killed.

Source of the values: patent publication US7476685B2, “Pyridine carboxamide derivatives and their use as pesticides” (Merial Limited, priority 2002, dated 2009).
